Source: PMC3058180 (Journal of pharmaceutical sciences, 2010)

Test system: A/Wuhan/359/95 E119V (oseltamivir-resistant)
Type: cell-based, influenza A virus
Details: read-out: IC50 (nM of Zanamivir)

Structure (SMILES): CC(=O)N[C@H]1[C@H]([C@H](O)[C@H](O)CO)OC(C(=O)O)=C[C@@H]1N=C(N)N [compound 1, Zanamivir]
- IC50: 48000 nM
